Measurements published in publication PMC11876601 (Molecular Systems Biology, 2025).

Legend:
PDO UME061 = assay: PDO viability assay (CellTiter-Glo, 72 h); format: cell-based; conditions: Homo sapiens
Experimental: Primary patient-derived PDAC organoid (PDO) experiments were performed in the laboratories of Prof. Maximilian Reichert (University Hospital of the TU Munich, Germany, PDO set 1: B250, B535, B678) and Prof. Jens T. Siveke (University Hospital Essen, Germany; PDO set 2: UME008, UME012, UME051, UME053, UME060, UME061). PDOs were generated from surgical resection, EUS-guided fine needle biopsy (EUS-FNB), or ascites (Appendix Table S2). Surgical specimens were first minced with a sterile scalpel and subsequently washed with Anti-Anti solution and washing medium (PDO set 1), or vice versa (PDO set 2; Appendix Table S3). Biopsy samples were directly washed with an Anti-Anti solution and washing medium. Samples were digested using 1 ml of digestion medium at 37 °C while shaking, and the enzymatic reaction was stopped by adding 15 ml of washing medium (Appendix Table S3). […]
For viability assays in PDOs, confluent organoids were removed from medium, and Matrigel was dissolved by adding 200 μl (PDO set 1) or 2 ml (PDO set 2) of Cell Recovery Solution (Corning), and additionally 500 μl of DPBS (PDO set 1 only). […] After 72 h, cell viability was measured using the CellTiter-Glo Luminescent Cell Viability Assay (Promega) diluted 1:5 in the final volume of the well. […]

SLK = tested on: SLK; parameters: method as in Klaeger et al. (2017); conditions: lysate 4 cell line mix (Colo205, K-562, MV-4-11, and SK-N-BE(2)), Kinobeads y, ref Klaeger et al. (2017); cited from earlier work
RPS6KA3 = tested on: RPS6KA3; parameters: method as in Klaeger et al. (2017); conditions: lysate 4 cell line mix (Colo205, K-562, MV-4-11, and SK-N-BE(2)), Kinobeads y, ref Klaeger et al. (2017); cited from earlier work
HCK = biological target: HCK; parameters: method as in Reinecke et al. (2023); conditions: 5 cell line mix lysate, Kinobeads ε, ref Reinecke et al. (2023), cited from earlier work
CSNK2A2 = conditions: CSNK2A2, 5 cell line mix lysate, Kinobeads ε, ref Reinecke et al. (2023), cited from earlier work
FES = biological target: FES; parameters: method as in Reinecke et al. (2023); conditions: 5 cell line mix lysate, Kinobeads ε, ref Reinecke et al. (2023), cited from earlier work
MAPK8 = tested on: MAPK8; parameters: method as in Reinecke et al. (2023); conditions: MAPK8, 5 cell line mix lysate, Kinobeads ε, ref Reinecke et al. (2023), cited from earlier work
TBKBP1 = conditions: TBKBP1, 5 cell line mix lysate, Kinobeads ε, ref Reinecke et al. (2023), cited from earlier work

Nc1ccn([C@@H]2O[C@H](CO)[C@@H](O)C2(F)F)c(=O)n1 [GEM, Gemcitabine]
EC50 (PDO UME061; GEM alone): 5.8 nM | EC50 (PDO UME061; experiment GEM (GEM alone), mean of replicates): 5.78 nM

C[C@]12O[C@H](C[C@]1(O)CO)n1c3ccccc3c3c4c(c5c6ccccc6n2c5c31)CNC4=O [Lestaurtinib]
EC50 (SLK): […] | EC50 (RPS6KA3): 2790 nM

COc1cc(N2CCC(N3CCN(C)CC3)CC2)ccc1Nc1ncc(Cl)c(Nc2ccccc2P(C)(C)=O)n1 [Brigatinib]
Kd (HCK; read-out: KDapp): 776 nM | EC50 (HCK): 1500 nM | pKDapp (HCK): 6.11 | EC50 (CSNK2A2): 720 nM | pKDapp (CSNK2A2): 6.16 | Kd (CSNK2A2; read-out: KDapp): 693 nM | Kd (FES; read-out: KDapp): 63 nM | EC50 (FES): 170 nM | pKDapp (FES): 7.20 | EC50 (MAPK8): 2200 nM | pKDapp (MAPK8): 5.85 | Kd (MAPK8; read-out: KDapp): 1420 nM | EC50 (TBKBP1): 940 nM | pKDapp (TBKBP1): 6.13 | Kd (TBKBP1; read-out: KDapp): 746 nM
